Test results published in publication PMC2782309 (2009).

Biological target: TRPM2 (transient receptor potential cation channel, subfamily melastatin, member 2) (Homo sapiens, UniProt O94759)
Test: whole-cell patch clamp with ADPR infused through the pipette
Format: cell-based

TRPM2 (transient receptor potential cation channel, subfamily melastatin, member 2), sequence (O94759 whole entry, the tested form may be a part): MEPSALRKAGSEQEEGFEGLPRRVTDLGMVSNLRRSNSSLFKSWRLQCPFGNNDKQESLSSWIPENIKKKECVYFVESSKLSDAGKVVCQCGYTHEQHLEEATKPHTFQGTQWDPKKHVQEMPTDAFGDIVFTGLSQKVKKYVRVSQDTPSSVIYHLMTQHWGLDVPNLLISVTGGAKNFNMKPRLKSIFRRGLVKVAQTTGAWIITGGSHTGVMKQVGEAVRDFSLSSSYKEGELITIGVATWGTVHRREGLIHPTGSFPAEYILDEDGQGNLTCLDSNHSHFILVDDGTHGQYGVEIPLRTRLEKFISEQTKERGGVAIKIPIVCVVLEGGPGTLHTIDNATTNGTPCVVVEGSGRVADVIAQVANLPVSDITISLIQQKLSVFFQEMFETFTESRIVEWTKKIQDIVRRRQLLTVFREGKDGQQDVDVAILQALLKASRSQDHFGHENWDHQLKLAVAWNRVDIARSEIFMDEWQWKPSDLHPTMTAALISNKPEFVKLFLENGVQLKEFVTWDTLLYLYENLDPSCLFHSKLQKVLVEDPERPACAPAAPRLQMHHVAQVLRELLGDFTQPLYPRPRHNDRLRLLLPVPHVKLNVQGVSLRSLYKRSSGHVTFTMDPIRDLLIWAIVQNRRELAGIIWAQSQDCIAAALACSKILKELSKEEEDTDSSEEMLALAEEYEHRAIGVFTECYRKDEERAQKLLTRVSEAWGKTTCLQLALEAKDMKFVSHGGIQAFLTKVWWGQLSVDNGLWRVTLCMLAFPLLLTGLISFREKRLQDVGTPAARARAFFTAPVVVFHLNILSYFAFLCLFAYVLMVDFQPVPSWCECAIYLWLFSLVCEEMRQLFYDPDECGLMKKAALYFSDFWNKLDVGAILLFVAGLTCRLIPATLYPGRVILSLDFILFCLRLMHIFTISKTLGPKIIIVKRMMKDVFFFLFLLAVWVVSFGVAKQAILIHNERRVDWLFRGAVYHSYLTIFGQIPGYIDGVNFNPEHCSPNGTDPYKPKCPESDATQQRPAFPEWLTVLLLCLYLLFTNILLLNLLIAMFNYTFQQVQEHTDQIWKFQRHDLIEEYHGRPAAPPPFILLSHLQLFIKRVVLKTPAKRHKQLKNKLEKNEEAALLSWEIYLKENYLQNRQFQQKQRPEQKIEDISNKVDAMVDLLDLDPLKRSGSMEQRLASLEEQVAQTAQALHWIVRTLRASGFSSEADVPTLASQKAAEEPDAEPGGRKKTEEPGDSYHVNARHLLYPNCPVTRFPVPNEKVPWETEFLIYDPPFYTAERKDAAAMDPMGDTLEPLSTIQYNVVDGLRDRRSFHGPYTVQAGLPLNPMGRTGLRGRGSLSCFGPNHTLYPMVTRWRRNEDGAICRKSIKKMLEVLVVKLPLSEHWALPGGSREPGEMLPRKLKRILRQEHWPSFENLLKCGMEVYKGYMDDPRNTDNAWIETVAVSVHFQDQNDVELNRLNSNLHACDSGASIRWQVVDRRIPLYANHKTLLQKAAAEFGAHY

EC50: 133 µM
SMILES: Nc1ncnc2c1ncn2[C@@H]1O[C@H](COP(=O)(O)OP(=O)(O)OC[C@H]2OC(O)[C@H](O)[C@@H]2O)[C@@H](O)[C@H]1O (stereo partly shown) [ADPR]
